Tested on: subjects with moderately to severely active RA who have an inadequate response to methotrexate (MTX)
Test: Study 2 (monotherapy) - serum CRP values
Format: in vivo, human
From the text: Randomized, double-blind, placebo-controlled, multicenter, phase IIb dose finding study of Compound 1 (dosed as a [Compound 1:HCl:3H2O]) administered for 24 weeks as monotherapy to subjects with moderately to severely active rheumatoid arthritis who have an inadequate response to methotrexate alone
Double-blind, placebo-controlled, monotherapy study in subjects with moderately to severely active RA who have an inadequate response to methotrexate (MTX) (oral or parenteral).
280 subjects randomized to one of 3 doses of Compound 1 (dosed as a [Compound 1:HCl:3H2O]) or to placebo, given once daily (q.d.).
Twelve weeks of treatment with Compound 1 (dosed as a [Compound 1:HCl:3H2O]) at 50 mg, 100 mg, or 200 mg q.d.; or placebo. At Week 12, all subjects on placebo and the subjects on the 50 mg dose who have not achieved 20% improvement in swollen joint count (SJC66) and tender joint count (TJC68) will be assigned to 100 mg q.d. in a blinded fashion and will continue treatment until Week 24. Subjects in the other groups will maintain their randomized treatment until Week 24.
CRP determination is available at Quest Diagnostics, Clinical Trials, Quest House, 125-135 Staines Road, Hounslow, Middlesex, TW3 3JB, United Kingdom under Catalogue n#86140.
The determination of CRP is made using Immunoturbidimetric assay for the in vitro quantitative determination of CRP in human serum and plasma on Roche/Hitachi cobas c systems, wherein human CRP agglutinates with latex particles coated with monoclonal anti-CRP antibodies. The aggregates are determined turbidimetrically (Eda et al., 1998; Price et al., 1987).
Human serum and plasma samples CRP determination was done on a Roche/Hitachi Cobas c 301 c 501/502 system which automatically calculate the analyte concentration of each sample. Samples containing precipitates are centrifuged before performing the assay.
The machine parameters are listed in Table XCI and Table XCII below, and the results at 12 weeks v using either LOCF are shown in Table XCIII and below. The Hommel-corrected p-value for the pairwise comparisons of each group with placebo is shown.
The number of subjects (N) provided in each groups corresponds to the number of subjects starting the study in each group, and the CRP data reported below corresponds to the responding subjects continuing for the entire 24 weeks on their initial treatment course.

## O=C(Nc1nc2cccc(-c3ccc(CN4CCS(=O)(=O)CC4)cc3)n2n1)C1CC1 [Compound 1, cyclopropanecarboxylic acid {5-[4-(1,1-dioxo-thiomorpholin-4-ylmethyl)-phenyl]-[1,2,4]triazolo[1,5-a]pyridin-2-yl}-amide]
50 mg q.d., week 1, 12 weeks results
  CRP mean CFB mg/L (LOCF): -3.70 mg/L
50 mg q.d., week 2, 12 weeks results
  CRP mean CFB mg/L (LOCF): -4.16 mg/L
50 mg q.d., week 4, 12 weeks results
  CRP mean CFB mg/L (LOCF): -9.46 mg/L
50 mg q.d., week 12, 12 weeks results
  CRP mean CFB mg/L (LOCF): -4.43 mg/L
50 mg q.d., week 8, 12 weeks results
  CRP mean CFB mg/L (LOCF): -11.16 mg/L
100 mg q.d., week 1, 12 weeks results
  CRP mean CFB mg/L (LOCF): -10.33 mg/L
100 mg q.d., week 2, 12 weeks results
  CRP mean CFB mg/L (LOCF): -8.67 mg/L
100 mg q.d., week 4, 12 weeks results
  CRP mean CFB mg/L (LOCF): -12.08 mg/L
100 mg q.d., week 12, 12 weeks results
  CRP mean CFB mg/L (LOCF): -12.25 mg/L
100 mg q.d., week 8, 12 weeks results
  CRP mean CFB mg/L (LOCF): -14.17 mg/L
200 mg q.d., week 1, 12 weeks results
  CRP mean CFB mg/L (LOCF): -12.58 mg/L
200 mg q.d., week 2, 12 weeks results
  CRP mean CFB mg/L (LOCF): -13.28 mg/L
200 mg q.d., week 4, 12 weeks results
  CRP mean CFB mg/L (LOCF): -13.04 mg/L
200 mg q.d., week 12, 12 weeks results
  CRP mean CFB mg/L (LOCF): -14.85 mg/L
200 mg q.d., week 8, 12 weeks results
  CRP mean CFB mg/L (LOCF): -13.86 mg/L
